In patent publication US20230117034A1, “PYRAZOLOTRIAZINES” (Bayer Aktiengesellschaft, priority 2019, published 2023):

Tests used:
[1] = test system: BRCA1 mRNA expression in MDA-MB-231 cells; experiment: qRT-PCR assay: BRCA1 mRNA expression in MDA-MB-231; assay type: cell-based, human; conditions: Homo sapiens, MDA-MB-231, Inhibition of BRCA1 mRNA expression in MDA-MB-231 cells; median; read-out: RTqPCR-MDA-MB-231, IC50, BRCA1 (median)
How it was run: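 First, cells are plated at 200,000 per well and allowed 24 h. Second, test substances are applied continuously for a further 24 h. Finally, RNA is isolated, 600 ng is converted to cDNA, and qPCR quantifies the transcript relative to GAPDH.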

[2] = target: T1, CDK9/CycT1 (Homo sapiens, UniProt P50750); experiment: CDK9/CycT1 high ATP kinase assay (TR-FRET, 2 mM ATP); assay type: biochemical; conditions: 2 mM ATP (high ATP); median; read-out: CDK9/CyclinT1, 2 mM ATP (high ATP), IC50 (median)
T1 construct: Recombinant full-length His-tagged human CDK9 and CycT1; purchased Life Technologies PV4131; host or cells: insect cells
T1 sequence (P50750 whole entry): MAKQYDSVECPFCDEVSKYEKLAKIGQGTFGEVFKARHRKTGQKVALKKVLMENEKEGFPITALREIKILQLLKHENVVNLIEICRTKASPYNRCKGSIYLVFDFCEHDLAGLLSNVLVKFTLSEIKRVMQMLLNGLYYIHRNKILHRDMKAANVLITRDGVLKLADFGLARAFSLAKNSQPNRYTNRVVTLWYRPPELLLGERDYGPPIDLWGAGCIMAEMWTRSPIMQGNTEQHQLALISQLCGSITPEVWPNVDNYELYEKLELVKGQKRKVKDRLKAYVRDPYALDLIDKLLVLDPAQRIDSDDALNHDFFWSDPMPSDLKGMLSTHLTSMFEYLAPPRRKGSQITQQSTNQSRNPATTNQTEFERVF
T1 sequence (O60563 whole entry partner): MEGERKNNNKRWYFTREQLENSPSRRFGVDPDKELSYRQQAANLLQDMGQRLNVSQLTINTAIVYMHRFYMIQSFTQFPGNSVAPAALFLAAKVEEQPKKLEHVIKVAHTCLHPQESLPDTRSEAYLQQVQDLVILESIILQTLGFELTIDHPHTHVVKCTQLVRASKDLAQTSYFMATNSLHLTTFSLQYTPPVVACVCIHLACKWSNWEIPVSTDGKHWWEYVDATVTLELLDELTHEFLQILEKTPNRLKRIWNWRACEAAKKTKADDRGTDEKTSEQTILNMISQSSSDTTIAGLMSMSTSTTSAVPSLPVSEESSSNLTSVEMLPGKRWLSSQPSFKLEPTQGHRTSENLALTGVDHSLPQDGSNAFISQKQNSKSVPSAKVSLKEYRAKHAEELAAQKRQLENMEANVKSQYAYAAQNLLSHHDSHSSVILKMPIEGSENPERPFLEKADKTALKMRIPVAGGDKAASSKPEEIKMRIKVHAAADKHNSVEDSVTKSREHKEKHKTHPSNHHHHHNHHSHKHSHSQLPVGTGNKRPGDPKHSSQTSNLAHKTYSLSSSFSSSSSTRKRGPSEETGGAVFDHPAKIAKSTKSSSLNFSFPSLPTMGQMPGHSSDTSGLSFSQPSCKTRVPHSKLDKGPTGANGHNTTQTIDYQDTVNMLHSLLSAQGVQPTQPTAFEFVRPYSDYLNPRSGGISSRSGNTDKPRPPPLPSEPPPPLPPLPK
How it was run: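 Full-length His-tagged human CDK9/CycT1 (insect cell, ~0.5 μg/mL) preincubated 15 min at 22 °C with compound in Tris pH 8.0, MgCl2, DTT buffer before reaction with biotinylated peptide substrate at high ATP (2 mM).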

[3] = target: T2, CDK12 (nuclear staining in CAL-120 cells) (Homo sapiens, UniProt Q9NYV4); experiment: CDK12 nuclear protein level: immunofluorescence/high content analysis (CAL-120); assay type: cell-based; conditions: for DC50: CAL-120 cells, 24 h, immunofluorescence, 50% reduction of nuclear CDK12 staining intensity, median, read-out: CDK12 degradation IF, DC50- [mol/l] (median); for (IC50 CDK12 high ATP) to (Degradation DC50 CDK12) ratio: ratio of IC50 CDK12 high ATP kinase assay to DC50 CDK12 degradation (IF, CAL-120)
T2 construct: endogenous in cells; host or cells: CAL-120 human breast cancer cells (DSMZ ACC 459)
T2 sequence (Q9NYV4 whole entry): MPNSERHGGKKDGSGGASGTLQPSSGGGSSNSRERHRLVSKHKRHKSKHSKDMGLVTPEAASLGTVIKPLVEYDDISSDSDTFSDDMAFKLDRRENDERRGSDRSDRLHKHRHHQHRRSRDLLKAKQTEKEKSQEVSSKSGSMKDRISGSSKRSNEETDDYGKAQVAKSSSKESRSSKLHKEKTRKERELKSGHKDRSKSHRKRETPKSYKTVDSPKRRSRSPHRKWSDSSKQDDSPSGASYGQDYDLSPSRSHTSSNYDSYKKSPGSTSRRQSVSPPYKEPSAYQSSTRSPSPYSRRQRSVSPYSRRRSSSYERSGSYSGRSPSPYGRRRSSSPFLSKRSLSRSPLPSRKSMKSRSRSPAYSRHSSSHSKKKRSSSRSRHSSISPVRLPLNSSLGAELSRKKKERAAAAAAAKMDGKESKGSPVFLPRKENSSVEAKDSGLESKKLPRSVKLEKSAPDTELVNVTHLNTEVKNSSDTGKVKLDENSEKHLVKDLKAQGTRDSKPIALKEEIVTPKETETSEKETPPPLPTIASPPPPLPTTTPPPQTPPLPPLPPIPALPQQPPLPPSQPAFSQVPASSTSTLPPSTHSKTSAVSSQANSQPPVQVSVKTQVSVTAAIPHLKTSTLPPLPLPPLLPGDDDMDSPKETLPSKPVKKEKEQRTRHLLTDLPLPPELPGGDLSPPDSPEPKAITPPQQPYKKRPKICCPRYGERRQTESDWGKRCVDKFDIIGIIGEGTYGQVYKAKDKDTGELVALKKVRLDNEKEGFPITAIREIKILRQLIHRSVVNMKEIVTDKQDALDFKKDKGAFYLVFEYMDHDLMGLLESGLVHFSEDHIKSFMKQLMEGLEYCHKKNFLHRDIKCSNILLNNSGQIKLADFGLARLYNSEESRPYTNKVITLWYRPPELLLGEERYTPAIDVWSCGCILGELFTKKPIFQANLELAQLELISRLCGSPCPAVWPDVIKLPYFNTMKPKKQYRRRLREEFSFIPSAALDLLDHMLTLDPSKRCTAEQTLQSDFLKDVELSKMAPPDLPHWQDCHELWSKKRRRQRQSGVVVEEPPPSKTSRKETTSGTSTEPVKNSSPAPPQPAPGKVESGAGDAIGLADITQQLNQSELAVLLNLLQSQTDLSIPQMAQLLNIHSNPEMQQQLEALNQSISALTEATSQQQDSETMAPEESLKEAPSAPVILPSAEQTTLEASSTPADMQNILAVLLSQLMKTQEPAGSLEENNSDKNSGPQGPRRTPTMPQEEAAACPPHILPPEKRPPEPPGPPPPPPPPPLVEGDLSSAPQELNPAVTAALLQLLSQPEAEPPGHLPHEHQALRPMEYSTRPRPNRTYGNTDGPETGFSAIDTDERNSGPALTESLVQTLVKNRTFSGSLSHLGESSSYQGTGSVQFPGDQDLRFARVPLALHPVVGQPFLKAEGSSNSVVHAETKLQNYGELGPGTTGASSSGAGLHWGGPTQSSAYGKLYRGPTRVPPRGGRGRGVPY
T2 sequence (O75909 whole entry partner): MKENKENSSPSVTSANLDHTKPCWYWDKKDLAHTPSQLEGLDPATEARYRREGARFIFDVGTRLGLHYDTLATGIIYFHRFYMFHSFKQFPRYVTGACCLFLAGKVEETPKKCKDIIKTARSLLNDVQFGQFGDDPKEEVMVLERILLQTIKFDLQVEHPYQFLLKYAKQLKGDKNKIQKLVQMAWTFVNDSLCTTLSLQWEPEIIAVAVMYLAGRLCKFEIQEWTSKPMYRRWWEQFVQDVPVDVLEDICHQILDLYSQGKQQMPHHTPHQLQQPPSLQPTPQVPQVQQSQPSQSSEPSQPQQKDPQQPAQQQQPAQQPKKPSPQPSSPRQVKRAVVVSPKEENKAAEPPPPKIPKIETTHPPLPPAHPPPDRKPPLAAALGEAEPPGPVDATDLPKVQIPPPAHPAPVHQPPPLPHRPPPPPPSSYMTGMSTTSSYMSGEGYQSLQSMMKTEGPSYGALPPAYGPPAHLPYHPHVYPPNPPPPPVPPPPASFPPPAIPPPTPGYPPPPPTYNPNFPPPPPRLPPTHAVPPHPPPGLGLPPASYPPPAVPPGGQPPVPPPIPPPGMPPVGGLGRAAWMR
How it was run: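 DC50 is the degrader concentration that halves nuclear CDK12 immunofluorescence relative to controls, measured by high-content imaging. CAL-120 cells were exposed to compound for 24 h at 37 °C before PFA fixation, and signal was normalized to DMSO and control wells.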

[4] = target: T3, CYCLIN K (nuclear staining in CAL-120 cells) (Homo sapiens, UniProt O75909); experiment: CYCLIN K nuclear protein level: immunofluorescence high content analysis (CAL-120); assay type: cell-based; conditions: 24 h, 50% reduction of nuclear CCNK staining intensity, median, read-out: CYCLIN K degradation IF, DC50-[mol/l] (median)
T3 construct: endogenous in cells; host or cells: CAL-120 human breast cancer cells (DSMZ ACC 459)
T3 sequence (O75909 whole entry): as the sequence (O75909 whole entry partner) above
T3 sequence (Q9NYV4 whole entry partner): as the sequence (Q9NYV4 whole entry) above
How it was run: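 Readout is automated confocal image analysis of nuclear cyclin K immunofluorescence (Hoechst nuclei) after PFA fixation. Cells were CAL-120, exposed to compound dose-response 24 h at 37 °C; values are DC50 for halving nuclear CCNK signal relative to DMSO and control wells.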

| SMILES | IC50 [1] [nM] | IC50 [2] [nM] | DC50 [3] [nM] | (IC50 CDK12 high ATP) to (Degradation DC50 CDK12) ratio [3] | DC50 [4] [nM] |
| --- | --- | --- | --- | --- | --- |
| O=C1CN(c2nc(NCc3nc4ccccc4[nH]3)n3ncc(Br)c3n2)CCN1 [Example 167, 4-(4-{[(1H-benzimidazol-2-yl)methyl]amino}-8-bromopyrazolo[1,5-a][1,3,5]triazin-2-yl)piperazin-2-one] | 429 | > 20000 | 16.9 | 420 | – |
| CN(C)C1CCN(c2nc(NCc3nc4ccccc4[nH]3)n3ncc(Br)c3n2)CC1 [Example 201, N-[(1H-benzimidazol-2-yl)methyl]-8-bromo-2-[4-(dimethylamino)piperidin-1-yl]pyrazolo[1,5-a][1,3,5]triazin-4-amine] | 145 | > 20000 | 61.3 | >326 | – |
| CN(C)[C@H]1CCN(c2nc(NCc3nc4ccccc4[nH]3)n3ncc(Br)c3n2)C1 [Example 177, N-[(1H-benzimidazol-2-yl)methyl]-8-bromo-2-[(3S)-3-(dimethylamino)pyrrolidin-1-yl]pyrazolo[1,5-a][1,3,5]triazin-4-amine] | – | > 20000 | 35.7 | >561 | – |
| CN1CCN(c2nc(NCc3nc4ccccc4[nH]3)n3ncc(-c4ccncc4)c3n2)CC1 [Example 242, N-[(1H-benzimidazol-2-yl)methyl]-2-(4-methylpiperazin-1-yl)-8-(pyridin-4-yl)pyrazolo[1,5-a][1,3,5]triazin-4-amine] | 514 | > 20000 | 107 | >188 | – |
| CN1CC2CCC(C1)N2c1nc(NCc2nc3ccccc3[nH]2)n2ncc(Br)c2n1 [Example 226, N-(1H-benzimidazol-2-ylmethyl)-8-bromo-2-(3-methyl-3,8-diazabicyclo[3.2.1]octan-8-yl)pyrazolo[1,5-a][1,3,5]triazin-4-amine] | – | > 20000 | 27.6 | >725 | 3.89 |
| CN1CCCC2CN(c3nc(NCc4nc5ccccc5[nH]4)n4ncc(Br)c4n3)CC21 (stereo not shown) [Example 231, N-[(1H-benzimidazol-2-yl)methyl]-8-bromo-2-(1-methyloctahydro-6H-pyrrolo[3,4-b]pyridin-6-yl)pyrazolo[1,5-a][1,3,5]triazin-4-amine] | – | > 20000 | 33.9 | >590 | 34.1 |
| CCN(C)c1nc(NCc2nc3ccccc3[nH]2)n2ncc(Br)c2n1 [Example 233, N4-(1H-benzimidazol-2-ylmethyl)-8-bromo-N2-ethyl-N2-methyl-pyrazolo[1,5-a][1,3,5]triazine-2,4-diamine] | – | > 20000 | 103 | 73 | – |
| CO[C@@H]1CCN(c2nc(NCc3nc4ccccc4[nH]3)n3ncc(Br)c3n2)C1 [Example 223, N-[(1H-benzimidazol-2-yl)methyl]-8-bromo-2-[(3R)-3-methoxypyrrolidin-1-yl]pyrazolo[1,5-a][1,3,5]triazin-4-amine] | 86.5 | > 20000 | 57.6 | >287 | – |
| OC1CCCN(c2nc(NCc3nc4ccccc4[nH]3)n3ncc(Br)c3n2)C1 (racemic) [Example 16, (rac)-1-(4-{[(1H-benzimidazol-2-yl)methyl]amino}-8-bromopyrazolo[1,5-a][1,3,5]triazin-2-yl)piperidin-3-ol] | 5.41 | > 20000 | 4.54 | 1528 | – |
| CC(C)c1cnn2c(NCc3nc4ccccc4[nH]3)nc(Nc3ccccc3)nc12 [Example 13, N^4-[(1H-benzimidazol-2-yl)methyl]-N^2-phenyl-8-(propan-2-yl)pyrazolo[1,5-a][1,3,5]triazine-2,4-diamine] | – | > 20000 | 43.8 | >457 | – |
| COCCNc1nc(NCc2nc3ccccc3[nH]2)n2ncc(Br)c2n1 [Example 230, N4-(1H-benzimidazol-2-ylmethyl)-8-bromo-N2-(2-methoxyethyl)pyrazolo[1,5-a][1,3,5]triazine-2,4-diamine] | – | > 20000 | 66 | >303 | – |
| CN(C)[C@@H]1CCN(c2nc(NCc3nc4ccccc4[nH]3)n3ncc(Br)c3n2)C1 [Example 178, N-[(1H-benzimidazol-2-yl)methyl]-8-bromo-2-[(3R)-3-(dimethylamino)pyrrolidin-1-yl]pyrazolo[1,5-a][1,3,5]triazin-4-amine] | – | > 20000 | 25.5 | >783 | – |
| CC1(O)CCN(c2nc(NCc3nc4ccccc4[nH]3)n3ncc(Br)c3n2)C1 (stereo not shown) [Example 225, 1-[4-(1H-benzimidazol-2-ylmethylamino)-8-bromo-pyrazolo[1,5-a][1,3,5]triazin-2-yl]-3-methyl-pyrrolidin-3-ol] | 34.8 | > 20000 | 22.1 | 466 | – |
| Brc1cnn2c(NCc3nc4ccccc4[nH]3)nc(NCCN3CCCC3)nc12 [Example 235, N4-(1H-benzimidazol-2-ylmethyl)-8-bromo-N2-(2-pyrrolidin-1-ylethyl)pyrazolo[1,5-a][1,3,5]triazine-2,4-diamine] | – | > 20000 | 104 | >192 | – |
| O[C@H]1CCN(c2nc(NCc3nc4ccccc4[nH]3)n3ncc(Br)c3n2)C1 [Example 224, (3S)-1-(4-{[(1H-benzimidazol-2-yl)methyl]amino}-8-bromopyrazolo[1,5-a][1,3,5]triazin-2-yl)pyrrolidin-3-ol] | 21.2 | > 20000 | 38.4 | 407 | – |
| CN(CCN1CCCC1)c1nc(NCc2nc3ccccc3[nH]2)n2ncc(Br)c2n1 [Example 239, N4-(1H-benzimidazol-2-ylmethyl)-8-bromo-N2-methyl-N2-(2-pyrrolidin-1-ylethyl)pyrazolo[1,5-a][1,3,5]triazine-2,4-diamine] | – | > 20000 | 347 | >58 | – |
| CO[C@H]1CCN(c2nc(NCc3nc4ccccc4[nH]3)n3ncc(Br)c3n2)C1 [Example 222, N-[(1H-benzimidazol-2-yl)methyl]-8-bromo-2-[(3S)-3-methoxypyrrolidin-1-yl]pyrazolo[1,5-a][1,3,5]triazin-4-amine] | – | > 20000 | 48.8 | 123 | 3.05 |
| CC(C)c1cnn2c(NCc3nc4ccccc4[nH]3)nc(Nc3ccncc3)nc12 [Example 14, N^4-[(1H-benzimidazol-2-yl)methyl]-8-(propan-2-yl)-N^2-(pyridin-4-yl)pyrazolo[1,5-a][1,3,5]triazine-2,4-diamine] | < 30 | > 20000 | 14.6 | >1123 | – |
| COc1cccc2[nH]c(CNc3nc(N4C[C@H]5C[C@@H]4CO5)nc4c(C5CC5)cnn34)nc12 [Example 198, 8-cyclopropyl-N-[(4-methoxy-1H-benzimidazol-2-yl)methyl]-2-[(1R,4R)-2-oxa-5-azabicyclo[2.2.1]heptan-5-yl]pyrazolo[1,5-a][1,3,5]triazin-4-amine] | 60.3 | > 20000 | 34.9 | 214 | – |
| Cc1cc(-c2cnn3c(NCc4nc5ccccc5[nH]4)nc(N4CCN(C)CC4)nc23)ccn1 [Example 243, N-[(1H-benzimidazol-2-yl)methyl]-2-(4-methylpiperazin-1-yl)-8-(2-methylpyridin-4-yl)pyrazolo[1,5-a][1,3,5]triazin-4-amine] | – | > 20000 | 267 | >75 | – |
| OCCNc1nc(NCc2nc3ccccc3[nH]2)n2ncc(Br)c2n1 [Example 228, 2-[(4-{[(1H-benzimidazol-2-yl)methyl]amino}-8-bromopyrazolo[1,5-a][1,3,5]triazin-2-yl)amino]ethan-1-ol] | – | > 20000 | 47.1 | >425 | – |
| OC1(C(F)(F)F)CCN(c2nc(NCc3nc4ccccc4[nH]3)n3ncc(Br)c3n2)C1 (stereo not shown) [Example 200, 1-[4-(1H-benzimidazol-2-ylmethylamino)-8-bromo-pyrazolo[1,5-a][1,3,5]triazin-2-yl]-3-(trifluoromethyl)pyrrolidin-3-ol] | 66.2 | > 20000 | 117 | 37 | – |
